Measured values reported in PubChem BioAssay (NCI).
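Protocol summary: plate cells (96-well), add compound at 5 concentrations, incubate 48 h, interpolate endpoints linearly. At the GI50, growth is halved. At the TGI there is no net growth.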

How the values were obtained:
Experiment in all cases: growth of human tumour cells (NCI), 48 h
BT-549 breast = tested on: BT-549 breast
SK-OV-3 ovarian = tested on: SK-OV-3 ovarian
HCT-15 colon = tested on: HCT-15 colon
UACC-257 melanoma = tested on: UACC-257 melanoma
RXF 393 renal = tested on: RXF 393 renal
CAKI-1 renal = tested on: CAKI-1 renal
SF-295 CNS = tested on: SF-295 CNS
HL-60(TB) leukemia = tested on: HL-60(TB) leukemia
M14 melanoma = tested on: M14 melanoma
UACC-62 melanoma = tested on: UACC-62 melanoma
HCC-2998 colon = tested on: HCC-2998 colon
HCT-116 colon = tested on: HCT-116 colon
OVCAR-5 ovarian = tested on: OVCAR-5 ovarian
SR leukemia = tested on: SR leukemia
SW-620 colon = tested on: SW-620 colon
T-47D breast = tested on: T-47D breast
A549 NSCLC = tested on: A549 NSCLC
SF-268 CNS = tested on: SF-268 CNS
SNB-75 CNS = tested on: SNB-75 CNS
786-0 renal = tested on: 786-0 renal
LOX IMVI melanoma = tested on: LOX IMVI melanoma
COLO 205 colon = tested on: COLO 205 colon
CCRF-CEM leukemia = tested on: CCRF-CEM leukemia
PC-3 prostate = tested on: PC-3 prostate
DU-145 prostate = tested on: DU-145 prostate
TK-10 renal = tested on: TK-10 renal
NCI-H460 lung = tested on: NCI-H460 lung
HOP-92 NSCLC = tested on: HOP-92 NSCLC
MDA-MB-435 = tested on: MDA-MB-435

O=C1C=C(SCCO)C(=O)c2ccccc21 showed a TGI (BT-549 breast) of 2980 nM, a GI50 (SK-OV-3 ovarian) of 3970 nM and a TGI (SK-OV-3 ovarian) of 16300 nM. The GI50 (HCT-15 colon) was 1910 nM, the TGI (HCT-15 colon) was 3900 nM and the GI50 (UACC-257 melanoma) was 1960 nM. For the same molecule, the TGI (UACC-257 melanoma) was 3410 nM, the GI50 (RXF 393 renal) was 1640 nM and the TGI (RXF 393 renal) was 3010 nM. The GI50 (CAKI-1 renal) was 2080 nM, the TGI (CAKI-1 renal) was 6970 nM and the GI50 (SF-295 CNS) was 1620 nM. It also gave a TGI (SF-295 CNS) of 3000 nM, a GI50 (HL-60(TB) leukemia) of 451 nM and a TGI (HL-60(TB) leukemia) of 2460 nM. It also gave a GI50 (M14 melanoma) of 1780 nM, a TGI (M14 melanoma) of 3360 nM and a GI50 (UACC-62 melanoma) of 1600 nM. The TGI (UACC-62 melanoma) was 3040 nM, the GI50 (HCC-2998 colon) was 2780 nM and the TGI (HCC-2998 colon) was 6800 nM. It also gave a GI50 (HCT-116 colon) of 1800 nM, a TGI (HCT-116 colon) of 3680 nM and a GI50 (OVCAR-5 ovarian) of 4920 nM. The TGI (OVCAR-5 ovarian) was 21400 nM, the GI50 (SR leukemia) was 2170 nM and the TGI (SR leukemia) was 5750 nM. It also gave a GI50 (SW-620 colon) of 1850 nM, a TGI (SW-620 colon) of 3730 nM and a GI50 (T-47D breast) of 1470 nM. For the same molecule, the TGI (T-47D breast) was 4100 nM, the GI50 (A549 NSCLC) was 2240 nM and the TGI (A549 NSCLC) was 4590 nM. The GI50 (SF-268 CNS) was 1920 nM, the TGI (SF-268 CNS) was 5070 nM and the GI50 (SNB-75 CNS) was 1370 nM. The TGI (SNB-75 CNS) was 2680 nM, the GI50 (786-0 renal) was 2270 nM and the TGI (786-0 renal) was 6460 nM. The GI50 (LOX IMVI melanoma) was 1530 nM, the TGI (LOX IMVI melanoma) was 3260 nM and the GI50 (COLO 205 colon) was 2110 nM. For the same molecule, the TGI (COLO 205 colon) was 4290 nM, the GI50 (CCRF-CEM leukemia) was 1140 nM and the TGI (CCRF-CEM leukemia) was 4790 nM. It also gave a GI50 (PC-3 prostate) of 2450 nM, a TGI (PC-3 prostate) of 8890 nM and a GI50 (DU-145 prostate) of 1710 nM. For the same molecule, the TGI (DU-145 prostate) was 3090 nM, the GI50 (TK-10 renal) was 2750 nM and the TGI (TK-10 renal) was 6200 nM. It also gave a GI50 (NCI-H460 lung) of 1840 nM, a TGI (NCI-H460 lung) of 3590 nM and a GI50 (HOP-92 NSCLC) of 1300 nM. It also gave a TGI (HOP-92 NSCLC) of 3010 nM, a GI50 (MDA-MB-435) of 1340 nM and a TGI (MDA-MB-435) of 2650 nM.
